US9499529B2 (California State University Fresno, priority 2013, dated 2016)

Assays:
Assay type in all cases: cell-based, human
[1] = tested on: HeLa cervical cancer cells; assay: HeLa cell viability after treatment with analog (cell count, cell viability analyzer)
Protocol: Cell numbers were counted with a cell viability analyzer (Beckman-Coulter). The ratio of drug treated viable cell numbers to control vehicle (DMSO) treated viable cell numbers was defined as percentage viability. […] Compound nos.
The HeLa cells used in the experiments summarized by Table 5 were cultured in RPMI-1640 medium supplemented with 10% FBS, 4 mM glutamine, 1 mM sodium pyruvate, 100 IU/mL penicillin, 100 ug/mL streptomycin and 0.25 ug/mL amphotericin. The HeLa cells were plated in 24-well plates at a density of 20,000 cells in each well in 10% FBS RPMI-1640. […] Cell numbers were counted with a cell viability analyzer (Beckman-Coulter). […]

[2] = tested on: PC-3 prostate cancer cells; assay: In vitro cytotoxicity against PC-3 prostate cancer cells; details: PC-3 cells; for IC50: five days
Protocol: (§1) The half maximal inhibitory concentration (IC50) is a measure of the effectiveness of a substance in inhibiting a specific biological or biochemical function. It is commonly used as a measure of antagonist drug potency.
Cell cultures were maintained in 5% carbon dioxide at a temperature of 37° C. […] Cell numbers were counted with a cell viability analyzer (Beckman-Coulter). […] A preliminary dose response curve was prepared from the collected data by means well known to those of ordinary skill in the art.
(§2) The six different concentrations fell within a selected linear concentration range determined by reference to the preliminary dose response curve and efforts to estimate the concentration at which 50% of the cell growth would be inhibited. The selected six different concentrations were used to further fill out the dose response curve to pinpoint a more exact IC50 value.

[3] = tested on: DU-145 prostate cancer cells; assay: In vitro cytotoxicity against DU-145 prostate cancer cells; details: DU-145 cells; for IC50: five days
Protocol: as §1
Cell numbers were counted with a cell viability analyzer (Beckman-Coulter).
(§3) A preliminary dose response curve was prepared from the collected data by means well known to those of ordinary skill in the art.
as §2

[4] = tested on: HeLa cervical cancer cells; assay: In vitro cytotoxicity against HeLa cervical cancer cells; details: for IC50: three days
Protocol: as §1
Cell numbers were counted with a cell viability analyzer (Beckman-Coulter). The ratio of drug treated viable cell numbers to vehicle treated viable cell numbers was defined as percentage viability.
as §3, §2

[5] = 1 μM, three days, relative to DMSO vehicle
[6] = 10 μM, three days, relative to DMSO vehicle
[7] = Homo sapiens, HeLa, 72 h, read-out: HeLa Cell viability after treatment with analog (% viability)

| SMILES | HeLa Cell viability after treatment with analog (% viability) [1, 5] | HeLa Cell viability after treatment with analog (% viability) [1, 6] | IC50 (curcumin)/IC50 (analog) [2] | IC50 [2] | IC50 [3] | IC50 (curcumin)/IC50 (analog) [4] | IC50 [4] | IC50 (curcumin)/IC50 (analog) [3] | HeLa Cell viability after treatment with analog (% viability) ([1]; 10 µM) | viability at 1 µM [1, 7] | viability at 10 µM [1, 7] |
| --- | --- | --- | --- | --- | --- | --- | --- | --- | --- | --- | --- |
| Cn1cc(/C=C/C(=O)/C=C/c2cnn(C)c2)cn1 [Compound 38] | 92.8% | – | – | – | – | – | – | – | – | – | – |
| CC(C)n1ccnc1C=C1CN(C)CC(=Cc2nccn2C(C)C)C1=O [Compound 1] | 126.94% | 118.5% | 18 | 0.11 µM | 0.14 µM | – | – | – | – | – | – |
| CC(C)n1ccnc1/C=C/C(=O)/C=C/c1nccn1C(C)C [Compound 20] | 35% | 11.4% | – | 0.089 µM | 0.054 µM | 25 | 0.418 µM | – | – | – | – |
| Cn1nccc1C=C1CCCC(=Cc2ccnn2C)C1=O [Compound 14] | 88% | 71.4% | 7.6 | 0.26 µM | 0.73 µM | – | – | 0.41 | – | – | – |
| O=C(/C=C/c1nccs1)/C=C/c1nccs1 [Compound 24] | 68% | 19.2% | – | 0.068 µM | 0.055 µM | – | – | – | – | – | – |
| CCCCCCn1ccnc1/C=C/C(=O)/C=C/c1nccn1CCCCCC [Compound 35] | 6.1% | – | – | – | – | 18 | 0.59 µM | – | – | – | – |
| Cn1cc(C=C2CCCC(=Cc3cnn(C)c3)C2=O)cn1 [Compound 13] | 97% | 100% | 0.015 | 130 µM | 90 µM | – | – | 0.003 | – | – | – |
| CC(C)n1ccnc1C=C1CCCC(=Cc2nccn2C(C)C)C1=O [Compound 10] | 114.9% | 85.1% | – | 0.16 µM | 0.1 µM | – | – | – | – | – | – |
| Cc1cc(C=C2CN(C)CC(=Cc3cc(C)no3)C2=O)on1 [Compound 9] | 75.3% | 27.8% | – | 0.13 µM | 0.69 µM | – | – | 0.4 | – | – | – |
| Cc1cc(/C=C2\CCC/C(=C\c3cc(C)on3)C2=O)no1 [Compound 8, (2E,6E)-2,6-Bis((5-methylisoxazol-3-yl)methylene)cyclohexanone] | – | – | – | 0.14 µM | 0.034 µM | – | 0.205 µM | – | 12.8% | – | – |
| O=C(/C=C/c1cocn1)/C=C/c1cocn1 [Compound 37] | 72.9% | – | – | – | – | – | – | – | – | – | – |
| CC(C)Cn1c(/C=C/C(=O)/C=C/c2nc3ccccc3n2CC(C)C)nc2ccccc21 [Compound 41] | 5.72% | – | – | – | – | – | 0.321 µM | – | – | – | – |
| O=C(/C=C/c1cncs1)/C=C/c1cncs1 [Compound 29] | 77% | – | – | – | – | – | – | – | – | – | – |
| O=C(/C=C/c1ccncc1F)/C=C/c1ccncc1F [Compound 36] | 25.6% | – | – | – | – | – | – | – | – | – | – |
| Cc1nc(/C=C/C(=O)/C=C/c2coc(C)n2)co1 [Compound 26] | 100% | 65.9% | 2.4 | 0.84 µM | 0.75 µM | – | – | 0.4 | – | – | – |
| CC(C)CCn1ccnc1/C=C/C(=O)/C=C/c1nccn1CCC(C)C [Compound 33] | 3.0% | – | – | – | – | – | 0.23 µM | – | – | – | – |
| CN1CC(=Cc2ccnn2C)C(=O)C(=Cc2ccnn2C)C1 [Compound 4] | 107.1% | 67.4% | 1.9 | 1.02 µM | 1.64 µM | – | – | 0.18 | – | – | – |
| Cc1nc(C=C2CN(C)CC(=Cc3coc(C)n3)C2=O)co1 [Compound 7] | 59.5% | 59.5% | 6.4 | 0.31 µM | 0.076 µM | – | – | – | – | – | – |
| CN1CC(=Cc2cnn(C)c2)C(=O)C(=Cc2cnn(C)c2)C1 [Compound 3] | 100.9% | 97.8% | 0.03 | 76 µM | 1870 µM | – | – | 0.0002 | – | – | – |

| SMILES | HeLa Cell viability after treatment with analog (% viability) [1, 5] | HeLa Cell viability after treatment with analog (% viability) [1, 6] | IC50 (curcumin)/IC50 (analog) [2] | IC50 [2] | IC50 [3] | IC50 (curcumin)/IC50 (analog) [4] | IC50 [4] | IC50 (curcumin)/IC50 (analog) [3] | HeLa Cell viability after treatment with analog (% viability) ([1]; 10 µM) | viability at 1 µM [1, 7] | viability at 10 µM [1, 7] |
| --- | --- | --- | --- | --- | --- | --- | --- | --- | --- | --- | --- |
| Cc1cc(/C=C/C(=O)/C=C/c2cc(C)on2)no1 [Compound 27] | 48% | 15.9% | 7.9 | 0.25 µM | 0.042 µM | – | 0.296 µM | – | – | – | – |
| Cc1cc(C=C2CCCC(=Cc3cc(C)no3)C2=O)on1 [Compound 19] | 95% | 15.9% | – | 0.054 µM | 0.34 µM | – | – | 0.9 | – | – | – |
| O=C1C(=Cc2cscn2)CCCC1=Cc1cscn1 [Compound 16] | 79% | 15.8% | 16.5 | 0.12 µM | 0.075 µM | – | – | – | – | – | – |
| O=C1C(=Cc2nccs2)CCCC1=Cc1nccs1 [Compound 15] | 78% | 9.7% | 18 | 0.11 µM | 0.12 µM | – | – | – | – | – | – |
| Cc1noc(C)c1/C=C/C(=O)/C=C/c1c(C)noc1C [Compound 30] | 67% | – | – | – | – | – | – | – | – | – | – |
| CCC(CC)n1ccnc1/C=C/C(=O)/C=C/c1nccn1C(CC)CC [Compound 32] | 3.4% | – | – | – | – | – | 0.25 µM | – | – | – | – |
| Cn1nccc1/C=C/C(=O)/C=C/c1ccnn1C [Compound 23] | 59% | 82.6% | – | 1.9 µM | 0.16 µM | – | – | – | – | – | – |
| Cc1nc(C=C2CCCC(=Cc3coc(C)n3)C2=O)co1 [Compound 17] | 100% | 59.5% | 1 | 1.97 µM | 1.65 µM | – | – | 0.18 | – | – | – |
| CCC(CC)n1c(/C=C/C(=O)/C=C/c2nc3ccccc3n2C(CC)CC)nc2ccccc21 [Compound 45] | – | – | – | – | – | 15 | 0.696 µM | – | – | – | – |
| Cc1cc(/C=C2\CCC/C(=C\c3cc(C)on3)C2=O)no1 [Compound 18, (2E,6E)-2,6-Bis((5-methylisoxazol-3-yl)methylene)cyclohexanone] | – | – | – | 0.071 µM | 0.07 µM | 19 | 0.552 µM | – | – | 32% | 15.9% |
| Cc1csc(/C=C/C(=O)/C=C/c2nc(C)cs2)n1 [Compound 31] | 52% | – | – | – | – | – | – | – | – | – | – |
| CCC(C)n1ccnc1C=C1CCCC(=Cc2nccn2C(C)CC)C1=O (stereo not shown) [Compound 11] | 100% | 100% | 2 | 0.83 µM | 0.25 µM | – | – | – | – | – | – |
| CN1CC(=Cc2cscn2)C(=O)C(=Cc2cscn2)C1 [Compound 6] | 72.0% | 12.0% | 2.5 | 0.8 µM | 0.43 µM | 13 | 0.817 µM | 0.7 | – | – | – |
| CN1CC(=Cc2nccs2)C(=O)C(=Cc2nccs2)C1 [Compound 5] | 51.7% | 21.6% | 4.7 | 0.42 µM | 0.046 µM | – | – | – | – | – | – |
| CCC(C)n1ccnc1C=C1CN(C)CC(=Cc2nccn2C(C)CC)C1=O (stereo not shown) [Compound 2] | 111.1% | 95.9% | – | 6.63 µM | 0.01 µM | – | – | – | – | – | – |
| O=C(/C=C/c1cscn1)/C=C/c1cscn1 [Compound 25] | 89% | 13.7% | – | 0.094 µM | 0.096 µM | – | – | – | – | – | – |
| CCCC(C)n1ccnc1/C=C/C(=O)/C=C/c1nccn1C(C)CCC (stereo not shown) [Compound 34] | 7.7% | – | – | – | – | – | 0.15 µM | – | – | – | – |
| CC(C)Cn1ccnc1C=C1CCCC(=Cc2nccn2CC(C)C)C1=O [Compound 12] | 100% | 94.5% | 4.2 | 0.47 µM | 0.36 µM | – | – | 0.8 | – | – | – |
